From US6992188B1, “Substituted heterocyclic derivatives” (Pfizer, Inc., priority 1995, dated 2006)

melting point: 235 to 237 °C
Compound: CCC(CC)n1c(=O)[nH]c2c(Oc3c(C)cc(C)cc3C)nc(C)cc21 [Example 4, 1-(1-Ethylpropyl)-6-methyl-4-(2,4,6-trimethylphenoxy)-1,3-dihydro-imidazo[4,5-c]pyridin-2-one]
